Experimental data from PubChem BioAssay (NCI).
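Method: 48-hour compound exposure of cells in 96-well plates, five concentrations, linear interpolation of endpoints. TGI marks complete inhibition of growth.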

Assays:
Experiment in all cases: NCI anticancer screen, dose series, 48 h
UACC-257 melanoma = test system: UACC-257 melanoma
RXF 393 renal = test system: RXF 393 renal
OVCAR-5 ovarian = test system: OVCAR-5 ovarian
ACHN renal = test system: ACHN renal
HCC-2998 colon = test system: HCC-2998 colon
A498 renal = test system: A498 renal
HCT-116 colon = test system: HCT-116 colon
SK-MEL-5 melanoma = test system: SK-MEL-5 melanoma
SNB-75 CNS = test system: SNB-75 CNS
MDA-N = test system: MDA-N
MCF7 breast = test system: MCF7 breast
NCI-H23 lung = test system: NCI-H23 lung
HOP-92 NSCLC = test system: HOP-92 NSCLC
SK-MEL-2 melanoma = test system: SK-MEL-2 melanoma
SNB-19 CNS = test system: SNB-19 CNS
HL-60(TB) leukemia = test system: HL-60(TB) leukemia
BT-549 breast = test system: BT-549 breast
HT29 colon = test system: HT29 colon
786-0 renal = test system: 786-0 renal
EKVX NSCLC = test system: EKVX NSCLC
RPMI-8226 leukemia = test system: RPMI-8226 leukemia
SK-MEL-28 melanoma = test system: SK-MEL-28 melanoma
SN12C renal = test system: SN12C renal
KM12 colon = test system: KM12 colon
NCI-H226 lung = test system: NCI-H226 lung
U251 CNS = test system: U251 CNS
SW-620 colon = test system: SW-620 colon
SR leukemia = test system: SR leukemia
MOLT-4 leukemia = test system: MOLT-4 leukemia
MDA-MB-231 breast = test system: MDA-MB-231 breast
UO-31 renal = test system: UO-31 renal
K-562 leukemia = test system: K-562 leukemia
T-47D breast = test system: T-47D breast
HCT-15 colon = test system: HCT-15 colon
PC-3 prostate = test system: PC-3 prostate
M14 melanoma = test system: M14 melanoma
MALME-3M melanoma = test system: MALME-3M melanoma
A549 NSCLC = test system: A549 NSCLC
OVCAR-8 ovarian = test system: OVCAR-8 ovarian
HOP-62 NSCLC = test system: HOP-62 NSCLC
IGROV1 ovarian = test system: IGROV1 ovarian
HS 578T breast = test system: HS 578T breast
COLO 205 colon = test system: COLO 205 colon
UACC-62 melanoma = test system: UACC-62 melanoma
TK-10 renal = test system: TK-10 renal
NCI-H460 lung = test system: NCI-H460 lung
MDA-MB-435 = test system: MDA-MB-435
SK-OV-3 ovarian = test system: SK-OV-3 ovarian
SF-268 CNS = test system: SF-268 CNS
LOX IMVI melanoma = test system: LOX IMVI melanoma
CCRF-CEM leukemia = test system: CCRF-CEM leukemia
DU-145 prostate = test system: DU-145 prostate
NCI/ADR-RES ovarian = test system: NCI/ADR-RES ovarian
OVCAR-4 ovarian = test system: OVCAR-4 ovarian
SF-295 CNS = test system: SF-295 CNS
OVCAR-3 ovarian = test system: OVCAR-3 ovarian
CAKI-1 renal = test system: CAKI-1 renal
NCI-H522 lung = test system: NCI-H522 lung
SF-539 CNS = test system: SF-539 CNS

Measured: TGI

CCOC(=O)C1CCCc2sc(N)c(C#N)c21 (stereo unspecified)
not listed: MDA-MB-435 | SK-OV-3 ovarian | SF-268 CNS | LOX IMVI melanoma | CCRF-CEM leukemia | DU-145 prostate | NCI/ADR-RES ovarian | OVCAR-4 ovarian | SF-295 CNS | OVCAR-3 ovarian | CAKI-1 renal | NCI-H522 lung | SF-539 CNS
> 100 µM: all other assays above

Cn1c(=O)c2c(nc3n2CCCC(=O)N3CCCCl)n(C)c1=O
not listed: MALME-3M melanoma | SF-539 CNS
> 100 µM: all other assays above

CC(=O)OC(C(=O)O)C(OC(C)=O)C(OC(C)=O)C(OC(C)=O)C(=O)O (stereo unspecified)
> 100000 nM: SF-539 CNS
not listed: RXF 393 renal | ACHN renal | HCC-2998 colon | SNB-75 CNS | 786-0 renal | T-47D breast | DU-145 prostate | OVCAR-4 ovarian
> 100 µM: all other assays above

COc1cc(C2c3cc4c(cc3OC(NNC(N)=S)C2C)OCO4)cc(OC)c1OC (stereo unspecified)
> 55.1 µM: OVCAR-8 ovarian
2.6 µM: HT29 colon
1.24 µM: NCI-H522 lung
> 35.6 µM: KM12 colon
7.9 µM: HOP-92 NSCLC
1.37 µM: COLO 205 colon
60.1 µM: UO-31 renal
> 57.6 µM: OVCAR-3 ovarian
523 nM: SF-539 CNS
0.884 µM: SF-295 CNS
0.631 µM: HL-60(TB) leukemia
62.3 µM: BT-549 breast
8.68 µM: MDA-MB-231 breast
0.847 µM: RPMI-8226 leukemia
18.7 µM: HCC-2998 colon
> 80.7 µM: HCT-116 colon
34.7 µM: A498 renal
> 92.7 µM: UACC-257 melanoma
1.42 µM: SR leukemia
36.3 µM: CAKI-1 renal
21 µM: NCI-H226 lung
> 42.9 µM: U251 CNS
> 31.6 µM: T-47D breast
> 51.9 µM: M14 melanoma
not listed: RXF 393 renal | SK-MEL-5 melanoma | NCI-H23 lung | MOLT-4 leukemia | PC-3 prostate | MDA-MB-435 | CCRF-CEM leukemia
> 100 µM: all other assays above
